# Tests used:
# [1] = target: Myosin light chain kinase 2, skeletal/cardiac muscle (Homo sapiens) (UniProt Q9H1R3); assay: Selectivity interaction (ProQinase) EUB0000171b MYLK2
# [2] = target: T1, NUAK family SNF1-like kinase 2 (Homo sapiens) (UniProt Q9H093); assay: Selectivity interaction (KinomeScan (DiscoverX)) EUB0001079a NUAK2; conditions: at 1 µM
# T1 sequence (whole entry): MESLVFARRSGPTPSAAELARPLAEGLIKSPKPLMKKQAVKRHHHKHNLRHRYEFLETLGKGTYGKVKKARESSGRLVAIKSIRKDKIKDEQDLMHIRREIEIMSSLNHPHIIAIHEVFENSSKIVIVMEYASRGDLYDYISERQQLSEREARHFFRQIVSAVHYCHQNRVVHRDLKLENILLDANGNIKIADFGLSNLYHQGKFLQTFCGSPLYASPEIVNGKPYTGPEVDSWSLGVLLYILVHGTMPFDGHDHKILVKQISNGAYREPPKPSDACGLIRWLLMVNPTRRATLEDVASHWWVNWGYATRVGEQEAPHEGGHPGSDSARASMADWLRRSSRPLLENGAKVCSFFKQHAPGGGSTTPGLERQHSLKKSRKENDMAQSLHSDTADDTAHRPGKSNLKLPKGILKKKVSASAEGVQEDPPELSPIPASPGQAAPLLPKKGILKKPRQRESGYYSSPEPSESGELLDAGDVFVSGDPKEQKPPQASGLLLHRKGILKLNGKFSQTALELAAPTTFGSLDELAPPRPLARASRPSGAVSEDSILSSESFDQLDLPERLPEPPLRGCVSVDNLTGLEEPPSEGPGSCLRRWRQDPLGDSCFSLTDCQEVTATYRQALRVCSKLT
# [3] = target: DNA-dependent protein kinase catalytic subunit (Homo sapiens) (UniProt P78527); assay: Selectivity interaction (Kinase panel (KiNativ target engagement assay in Jurkat cells)) EUB0001635a PRKDC; type: cell-based; conditions: Selectivity number of off-targets 0.0, Selectivity number of targets 233.0, Source Knowledge https://www.sciencedirect.com/science/article/pii/S2451945619300674?via%3Dihub, at 1 µM
# [4] = target: T2, Serine/threonine-protein kinase 17B (Homo sapiens) (UniProt O94768); assay: Selectivity interaction (KinomeScan (DiscoverX)) EUB0000666a STK17B; conditions: at 10 µM
# T2 sequence (whole entry): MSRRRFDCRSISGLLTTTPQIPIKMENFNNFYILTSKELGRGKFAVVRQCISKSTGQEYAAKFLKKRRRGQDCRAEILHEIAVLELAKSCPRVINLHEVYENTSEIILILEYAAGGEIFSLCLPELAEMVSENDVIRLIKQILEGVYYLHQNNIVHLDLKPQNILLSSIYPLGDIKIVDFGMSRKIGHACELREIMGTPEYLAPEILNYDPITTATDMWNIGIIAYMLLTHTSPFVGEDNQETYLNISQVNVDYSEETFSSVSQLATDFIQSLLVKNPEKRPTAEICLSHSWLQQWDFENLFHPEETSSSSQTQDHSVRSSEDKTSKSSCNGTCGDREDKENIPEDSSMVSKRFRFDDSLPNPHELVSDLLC
# [5] = target: Mitogen-activated protein kinase kinase kinase 10 (Homo sapiens) (UniProt Q02779); assay: Selectivity interaction (KinomeScan (DiscoverX)) EUB0000666a MAP3K10; conditions: at 10 µM
# [6] = target: T3, Protein kinase C zeta type (Homo sapiens) (UniProt Q05513); assay: Selectivity interaction (Kinase panel (Invitrogen)) EUB0000639a PRKCZ; conditions: at 200 nM
# T3 sequence (whole entry): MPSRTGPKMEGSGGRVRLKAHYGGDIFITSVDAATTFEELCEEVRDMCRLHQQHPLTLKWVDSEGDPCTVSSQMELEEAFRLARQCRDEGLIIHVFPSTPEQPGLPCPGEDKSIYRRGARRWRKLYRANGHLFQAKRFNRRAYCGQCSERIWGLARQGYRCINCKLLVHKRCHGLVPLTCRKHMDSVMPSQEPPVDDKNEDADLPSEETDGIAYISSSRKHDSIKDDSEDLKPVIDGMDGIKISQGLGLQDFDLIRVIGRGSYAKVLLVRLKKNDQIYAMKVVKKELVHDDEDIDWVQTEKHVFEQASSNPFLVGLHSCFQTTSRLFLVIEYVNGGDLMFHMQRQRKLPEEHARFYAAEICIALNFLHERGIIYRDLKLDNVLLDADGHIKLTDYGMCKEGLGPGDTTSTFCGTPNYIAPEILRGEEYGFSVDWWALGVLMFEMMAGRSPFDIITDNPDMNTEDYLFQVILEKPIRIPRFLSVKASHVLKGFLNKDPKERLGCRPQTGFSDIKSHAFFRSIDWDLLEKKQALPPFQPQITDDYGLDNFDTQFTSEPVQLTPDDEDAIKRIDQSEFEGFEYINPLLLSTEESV
# [7] = target: T4, SNF-related serine/threonine-protein kinase (Homo sapiens) (UniProt Q9NRH2); assay: Selectivity interaction (KinomeScan (DiscoverX)) EUB0001049a SNRK; conditions: at 1 µM
# T4 sequence (whole entry): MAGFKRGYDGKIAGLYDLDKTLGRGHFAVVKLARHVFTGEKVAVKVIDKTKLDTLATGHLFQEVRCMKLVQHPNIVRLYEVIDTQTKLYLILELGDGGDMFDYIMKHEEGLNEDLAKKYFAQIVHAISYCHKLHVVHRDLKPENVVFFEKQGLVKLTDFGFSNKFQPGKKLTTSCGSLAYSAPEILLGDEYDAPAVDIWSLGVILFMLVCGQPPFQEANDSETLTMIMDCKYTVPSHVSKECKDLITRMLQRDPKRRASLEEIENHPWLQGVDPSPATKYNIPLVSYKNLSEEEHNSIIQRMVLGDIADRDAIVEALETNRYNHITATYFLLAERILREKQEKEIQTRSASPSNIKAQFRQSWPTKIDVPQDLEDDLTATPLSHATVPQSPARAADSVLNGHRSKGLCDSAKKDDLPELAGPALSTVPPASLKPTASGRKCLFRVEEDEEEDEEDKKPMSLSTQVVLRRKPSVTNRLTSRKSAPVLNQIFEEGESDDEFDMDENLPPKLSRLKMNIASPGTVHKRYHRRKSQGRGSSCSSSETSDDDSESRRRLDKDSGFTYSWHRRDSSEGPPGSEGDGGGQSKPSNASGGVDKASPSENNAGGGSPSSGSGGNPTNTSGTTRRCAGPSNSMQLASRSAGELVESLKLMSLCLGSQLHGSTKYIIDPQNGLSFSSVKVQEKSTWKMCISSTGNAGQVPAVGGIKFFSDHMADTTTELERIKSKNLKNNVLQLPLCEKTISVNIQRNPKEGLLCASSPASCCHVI
# [8] = target: Myosin light chain kinase 2, skeletal/cardiac muscle (Homo sapiens) (UniProt Q9H1R3); assay: Selectivity interaction (KinomeScan (DiscoverX)) EUB0001619a MYLK2; conditions: at 1 µM
# Sequence of Myosin light chain kinase 2, skeletal/cardiac muscle (Homo sapiens) (Q9H1R3 whole entry): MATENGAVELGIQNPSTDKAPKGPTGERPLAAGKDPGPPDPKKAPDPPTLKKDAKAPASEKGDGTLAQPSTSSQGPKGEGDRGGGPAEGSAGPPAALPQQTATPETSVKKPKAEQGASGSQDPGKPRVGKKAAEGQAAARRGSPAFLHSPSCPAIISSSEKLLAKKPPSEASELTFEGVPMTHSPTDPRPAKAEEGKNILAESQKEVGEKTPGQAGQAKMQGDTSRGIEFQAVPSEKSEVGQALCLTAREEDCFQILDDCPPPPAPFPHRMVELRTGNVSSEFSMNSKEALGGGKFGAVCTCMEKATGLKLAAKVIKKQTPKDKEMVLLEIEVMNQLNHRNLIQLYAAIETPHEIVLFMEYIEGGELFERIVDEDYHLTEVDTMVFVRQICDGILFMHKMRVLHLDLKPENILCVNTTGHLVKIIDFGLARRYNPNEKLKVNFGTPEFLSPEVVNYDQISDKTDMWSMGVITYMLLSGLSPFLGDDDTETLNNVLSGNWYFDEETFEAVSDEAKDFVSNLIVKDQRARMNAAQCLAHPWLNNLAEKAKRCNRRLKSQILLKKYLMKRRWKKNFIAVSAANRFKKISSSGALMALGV
# Sequence of Mitogen-activated protein kinase kinase kinase 10 (Homo sapiens) (Q02779 whole entry, looked up): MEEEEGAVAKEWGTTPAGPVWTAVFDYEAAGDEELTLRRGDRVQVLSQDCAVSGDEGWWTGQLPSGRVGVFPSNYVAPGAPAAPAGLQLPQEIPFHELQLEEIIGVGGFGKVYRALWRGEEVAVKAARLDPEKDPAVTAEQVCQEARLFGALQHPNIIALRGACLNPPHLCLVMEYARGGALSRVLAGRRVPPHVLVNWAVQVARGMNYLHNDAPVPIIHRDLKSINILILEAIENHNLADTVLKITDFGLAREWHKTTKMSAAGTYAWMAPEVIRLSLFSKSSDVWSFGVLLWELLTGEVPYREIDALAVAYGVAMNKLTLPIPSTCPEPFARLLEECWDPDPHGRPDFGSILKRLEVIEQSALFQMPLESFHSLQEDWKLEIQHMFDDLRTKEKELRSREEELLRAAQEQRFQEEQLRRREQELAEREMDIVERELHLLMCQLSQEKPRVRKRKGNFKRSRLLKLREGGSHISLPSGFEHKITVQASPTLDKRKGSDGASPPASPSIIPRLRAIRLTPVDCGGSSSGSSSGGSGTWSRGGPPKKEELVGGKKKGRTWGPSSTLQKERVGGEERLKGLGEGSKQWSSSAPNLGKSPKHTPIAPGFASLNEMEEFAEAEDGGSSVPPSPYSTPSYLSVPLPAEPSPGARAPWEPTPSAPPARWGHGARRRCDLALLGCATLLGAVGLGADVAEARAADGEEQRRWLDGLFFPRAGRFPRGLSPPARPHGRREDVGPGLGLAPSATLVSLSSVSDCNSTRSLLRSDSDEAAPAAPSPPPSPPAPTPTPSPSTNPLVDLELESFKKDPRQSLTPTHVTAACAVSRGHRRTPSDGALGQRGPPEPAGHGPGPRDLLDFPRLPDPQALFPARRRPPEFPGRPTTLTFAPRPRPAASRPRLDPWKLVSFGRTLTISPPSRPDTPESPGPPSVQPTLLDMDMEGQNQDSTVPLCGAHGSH
compound,measurement,setting,value
C=CC(=O)Nc1cccc(C(=O)Nc2ccc(Nc3cc(-c4[nH]c(SC)nc4C)ccn3)cc2)c1,% of control,[1]; at 1 µM,83%
same,% of control,[1]; at 5 µM,59%
Nc1cnc(N2CCc3cc(S(=O)(=O)Nc4c(F)cc(Cl)cc4F)cc(N4CCCC4=O)c32)nc1 [TP-020n],% of control,[2],100%
C=CC(=O)Nc1ccc(C(=O)Nc2[nH]nc3c2CN(C(=O)N[C@H](CN(C)C)c2ccccc2)C3(C)C)cc1,% of engagement,[3],-21.9%
O=C(NOC[C@H](O)CO)c1ccc(F)c(F)c1Nc1ccc(I)cc1F,% of control,[4],100%
same,% of control,[5],100%
CC[C@@H]1[C@H](F)C(=O)N[C@@H]1COc1nccc2cc(C(N)=O)c(OC)cc12 [ZIMLOVISERTIB],% of inhibition,[6],6.26%
COc1cc(Nc2nc(C)cc(-c3cnn4nc(OC)ccc34)n2)cc(C(F)(F)F)c1,% of control,[7],100%
N#Cc1cccc(-c2c[nH]c3ncnc(N4CCOCC4)c23)c1,% of control,[8],92%
